Assay results as given in patent US20220280572A1, “METHODS OF TREATING VASCULAR DISEASES” (Astellas Institute for Regenerative Medicine, priority 2019, published 2022).

Tested on: lung microvasculature
Assay: Micro CT scanning of lungs from the SuHx model
Type: in vivo, rat
Conditions: SuHx rats; sildenafil treatment
Description: Endothelial progenitor cells are reported to preserve microvasculature in MCT treated lung (Zhao et al. Cir. Res. 96:442-450 (2005)). Therefore, micro CT scanning was performed on the lungs from the SuHx model treated with Nx control, vehicle, sildenafil, and 1 million and 5 million GMP1-HE cells.

SMILES: CCCc1nn(C)c2c(=O)[nH]c(-c3cc(S(=O)(=O)N4CCN(C)CC4)ccc3OCC)nc12 [sildenafil]
- capillary perfusion (microCT): modest improvement
